Source: ChEMBL document CHEMBL1201862, “PubChem BioAssay data set” (2004)
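Method: 48-hour compound exposure of cells in 96-well plates, five concentrations, linear interpolation of endpoints. GI50 = concentration required for 50% inhibition of growth.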 Active and inactive are the calls of the source. Rule as the data show it: active = GI50 up to about 1.1 µM and inactive = higher.

Legend:
Assay in all cases: growth of human tumour cells (NCI), 48 h
OVCAR-5 = test system: OVCAR-5
SK-OV-3 = test system: SK-OV-3
UACC-62 = test system: UACC-62
SK-MEL-2 = test system: SK-MEL-2
OVCAR-4 = test system: OVCAR-4
SK-MEL-5 = test system: SK-MEL-5
KM12 = test system: KM12
OVCAR-8 = test system: OVCAR-8
SK-MEL-28 = test system: SK-MEL-28
SNB-19 = test system: SNB-19
COLO 205 = test system: COLO 205
CAKI-1 = test system: CAKI-1
UACC-257 = test system: UACC-257
RPMI-8226 = test system: RPMI-8226
ACHN = test system: ACHN
U-251 = test system: U-251
HCT-15 = test system: HCT-15
HL-60 = test system: HL-60
HOP-92 = test system: HOP-92

| Structure (SMILES) | GI50 (OVCAR-5) | GI50 (SK-OV-3) | GI50 (UACC-62) | GI50 (SK-MEL-2) | GI50 (OVCAR-4) | GI50 (SK-MEL-5) | GI50 (KM12) | GI50 (OVCAR-8) | GI50 (SK-MEL-28) | GI50 (SNB-19) | GI50 (COLO 205) | GI50 (CAKI-1) | GI50 (UACC-257) | GI50 (RPMI-8226) | GI50 (ACHN) | GI50 (U-251) | GI50 (HCT-15) [µM] | GI50 (HL-60) | GI50 (HOP-92) |
| --- | --- | --- | --- | --- | --- | --- | --- | --- | --- | --- | --- | --- | --- | --- | --- | --- | --- | --- | --- |
| COc1ccc(CCn2c(=O)c3ccccc3n(C)c2=O)cc1 | > 100 µM (inactive) | 14.6 µM (inactive) | 24.2 µM (inactive) | 20.5 µM (inactive) | > 100 µM (inactive) | 31 µM (inactive) | 8.77 µM (inactive) | 58.6 µM (inactive) | 57.5 µM (inactive) | > 100 µM (inactive) | 13.1 µM (inactive) | 38.5 µM (inactive) | 61.7 µM (inactive) | 39 µM (inactive) | > 100 µM (inactive) | 66.8 µM (inactive) |  |  |  |
| O=C(O)c1c[nH]c2c(ccc3ncccc32)c1=O | > 100 µM (inactive) | > 100 µM (inactive) | > 100 µM (inactive) | > 100 µM (inactive) | > 100 µM (inactive) | > 100 µM (inactive) | > 100 µM (inactive) | > 100 µM (inactive) | > 100 µM (inactive) | > 100 µM (inactive) | > 100 µM (inactive) |  |  |  | > 100 µM (inactive) | > 100 µM (inactive) | > 100 | > 100 µM (inactive) |  |
| CC(=O)OCC1OC(OC2C(CSC3OC(COC(C)=O)C(OC(C)=O)C(OC(C)=O)C3OC(C)=O)OC(OC(C)=O)C(OC(C)=O)C2OC(C)=O)C(OC(C)=O)C(OC(C)=O)C1OC(C)=O (stereo not given) | 23.7 µM (inactive) | > 100 µM (inactive) | > 100 µM (inactive) |  | > 100 µM (inactive) | > 100 µM (inactive) | > 100 µM (inactive) | > 100 µM (inactive) | > 100 µM (inactive) | > 100 µM (inactive) | > 100 µM (inactive) | > 100 µM (inactive) |  | > 100 µM (inactive) | > 100 µM (inactive) | > 100 µM (inactive) | > 100 |  | > 100 µM (inactive) |
| CN1CCn2c(Br)ccc2C1=O |  |  | > 100 µM (inactive) | > 100 µM (inactive) | > 100 µM (inactive) |  | > 100 µM (inactive) | > 100 µM (inactive) | > 100 µM (inactive) | > 100 µM (inactive) | > 100 µM (inactive) | > 100 µM (inactive) | > 100 µM (inactive) | > 100 µM (inactive) | > 100 µM (inactive) | > 100 µM (inactive) | > 100 | > 100 µM (inactive) |  |
| [O-][S+]1c2ccccc2N=C(c2ccc3ccccc3c2)CC1c1ccccc1F (stereo not given) | > 100 µM (inactive) | > 100 µM (inactive) | > 100 µM (inactive) | > 100 µM (inactive) | > 100 µM (inactive) | > 100 µM (inactive) | > 100 µM (inactive) | > 100 µM (inactive) | > 100 µM (inactive) | > 100 µM (inactive) | > 100 µM (inactive) | > 100 µM (inactive) | > 100 µM (inactive) | 58.6 µM (inactive) | > 100 µM (inactive) | > 100 µM (inactive) | > 100 | > 100 µM (inactive) |  |
| NS(=O)(=O)c1nnc(NSc2ccc([N+](=O)[O-])cc2)s1 | > 100 µM (inactive) | > 100 µM (inactive) | > 100 µM (inactive) | > 100 µM (inactive) | 48.9 µM (inactive) | > 100 µM (inactive) | > 10 µM (inactive) | > 100 µM (inactive) | > 100 µM (inactive) | > 100 µM (inactive) | > 100 µM (inactive) | 92.3 µM (inactive) | > 100 µM (inactive) | 49.7 µM (inactive) | > 100 µM (inactive) | > 100 µM (inactive) | > 100 |  | > 100 µM (inactive) |
| Cc1cc(C)nc(Sc2c([N+](=O)[O-])ncn2C)n1 | > 100 µM (inactive) | > 100 µM (inactive) | > 100 µM (inactive) | > 100 µM (inactive) | > 100 µM (inactive) | > 100 µM (inactive) | > 100 µM (inactive) | > 100 µM (inactive) | > 100 µM (inactive) | > 100 µM (inactive) | > 100 µM (inactive) | > 100 µM (inactive) | > 100 µM (inactive) | > 100 µM (inactive) | > 100 µM (inactive) | > 100 µM (inactive) |  |  | > 100 µM (inactive) |
